{
  "source": "patent US12281057B2",
  "about": "(VERTEX PHARMACEUTICALS INCORPORATED, priority 2017, dated 2025)",
  "data": [
    {"molecular_target": "truncated form of human NaV 1.8 with full channel activity (Homo sapiens, UniProt Q9Y5Y9)", "sequence (Q9Y5Y9 126-1722 limits assumed)": "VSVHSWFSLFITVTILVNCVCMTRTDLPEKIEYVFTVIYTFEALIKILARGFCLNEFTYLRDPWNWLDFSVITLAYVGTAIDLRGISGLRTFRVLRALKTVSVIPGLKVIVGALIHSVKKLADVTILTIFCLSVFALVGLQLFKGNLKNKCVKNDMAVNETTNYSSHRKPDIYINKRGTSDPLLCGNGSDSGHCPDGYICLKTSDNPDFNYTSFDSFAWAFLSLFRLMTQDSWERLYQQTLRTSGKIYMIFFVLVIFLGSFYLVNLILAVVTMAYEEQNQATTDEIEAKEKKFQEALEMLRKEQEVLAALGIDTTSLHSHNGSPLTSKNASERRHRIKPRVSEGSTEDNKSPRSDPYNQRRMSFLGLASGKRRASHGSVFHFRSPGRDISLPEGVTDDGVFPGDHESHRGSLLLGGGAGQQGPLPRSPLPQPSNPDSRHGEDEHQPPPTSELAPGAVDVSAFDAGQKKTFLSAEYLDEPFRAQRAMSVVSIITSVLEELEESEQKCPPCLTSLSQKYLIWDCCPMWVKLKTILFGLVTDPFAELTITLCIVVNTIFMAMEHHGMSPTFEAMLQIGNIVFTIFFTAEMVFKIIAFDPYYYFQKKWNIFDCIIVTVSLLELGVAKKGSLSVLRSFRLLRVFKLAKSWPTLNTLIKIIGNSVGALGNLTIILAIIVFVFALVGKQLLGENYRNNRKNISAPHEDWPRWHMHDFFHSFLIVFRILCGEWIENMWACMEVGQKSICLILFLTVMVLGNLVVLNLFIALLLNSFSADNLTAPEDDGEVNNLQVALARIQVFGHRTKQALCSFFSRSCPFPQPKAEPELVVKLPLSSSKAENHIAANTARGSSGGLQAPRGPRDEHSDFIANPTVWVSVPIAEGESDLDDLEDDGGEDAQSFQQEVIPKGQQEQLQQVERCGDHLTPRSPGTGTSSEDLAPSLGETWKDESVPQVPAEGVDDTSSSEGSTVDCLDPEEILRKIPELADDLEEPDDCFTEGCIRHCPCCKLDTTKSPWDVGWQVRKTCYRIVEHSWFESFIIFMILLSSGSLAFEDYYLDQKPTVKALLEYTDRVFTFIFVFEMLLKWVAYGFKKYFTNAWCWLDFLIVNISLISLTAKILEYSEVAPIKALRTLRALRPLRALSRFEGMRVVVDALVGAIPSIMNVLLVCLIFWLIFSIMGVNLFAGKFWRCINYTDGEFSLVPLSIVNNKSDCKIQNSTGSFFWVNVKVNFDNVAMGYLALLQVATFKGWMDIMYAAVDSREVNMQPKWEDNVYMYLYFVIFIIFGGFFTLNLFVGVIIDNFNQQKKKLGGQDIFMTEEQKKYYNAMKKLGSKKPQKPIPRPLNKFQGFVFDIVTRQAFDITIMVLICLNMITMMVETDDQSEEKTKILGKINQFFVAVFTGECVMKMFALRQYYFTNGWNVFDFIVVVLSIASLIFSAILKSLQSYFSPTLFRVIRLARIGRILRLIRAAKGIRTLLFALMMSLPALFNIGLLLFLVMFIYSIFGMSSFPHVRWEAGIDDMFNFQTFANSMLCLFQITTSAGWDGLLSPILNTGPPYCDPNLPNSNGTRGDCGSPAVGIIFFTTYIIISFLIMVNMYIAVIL", "test": "E-VIPR Assay Method A for detecting and measuring Nav inhibition (HEK cells, membrane potential FRET dyes, electrical stimulation)", "type": "cell-based", "settings": "HEK cells expressing human NaV 1.8, HS (human serum) in compound loading buffer, 11 point dose response, top dose 3 μM, Table 20A, read-out: Nav 1.8 MedChem Optical Assay EVIPR Assay Method A HS IC50", "outline": "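Read-out: FRET membrane-potential dye ratio (460/580 nm) before and during E-VIPR field stimulation at 10 Hz for 10 s, expressed as % activity between DMSO and positive controls. Cells: HEK with truncated human NaV1.8; compound preincubated 30 min at room temp, final DMSO 0.625%.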", "units": {"IC50": "nM"}, "values": [
      {"smiles": "COc1cc(OC(F)(F)F)ccc1Oc1cnc(C(F)(F)F)c(F)c1C(=O)Nc1ccc(C(N)=O)nc1", "note": "[Compound 194, N-(6-carbamoyl-3-pyridyl)-3-fluoro-5-[2-methoxy-4-(trifluoromethoxy)phenoxy]-2-(trifluoromethyl)pyridine-4-carboxamide]", "IC50": 21},
      {"smiles": "COc1ccc(Oc2ccc(C(F)(F)F)c(F)c2C(=O)Nc2ccnc(C(N)=O)c2)c(OC)c1", "note": "[Compound 195, 4-[[6-(2,4-Dimethoxyphenoxy)-2-fluoro-3-(trifluoromethyl)benzoyl]amino]pyridine-2-carboxamide]", "IC50": 11},
      {"smiles": "COc1ccc(Oc2ccc(C(F)(F)F)c(F)c2C(=O)Nc2ccnc(C(N)=O)c2)c(OC(F)(F)F)c1", "note": "[Compound 196, 4-[[2-Fluoro-6-[4-methoxy-2-(trifluoromethoxy)phenoxy]-3-(trifluoromethyl)benzoyl]amino]pyridine-2-carboxamide]", "IC50": 44},
      {"smiles": "COc1cc(OC(F)(F)F)ccc1Oc1cc2c(cc1C(=O)Nc1ccc(C(N)=O)nc1)OC(F)(F)O2", "note": "[Compound 197, 5-[[2,2-Difluoro-6-[2-methoxy-4-(trifluoromethoxy)phenoxy]-1,3-benzodioxole-5-carbonyl]amino]pyridine-2-carboxamide]", "IC50": 460},
      {"smiles": "[2H]C([2H])([2H])Oc1cc(OC(F)(F)F)ccc1Oc1ccc(OC(F)F)c(F)c1C(=O)Nc1ccc(C(N)=O)nc1", "note": "[Compound 198, 5-[[3-(Difluoromethoxy)-2-fluoro-6-[2-(trideuteriomethoxy)-4-(trifluoromethoxy)phenoxy]benzoyl]amino]pyridine-2-carboxamide]", "IC50": 150},
      {"smiles": "COc1cc(F)ccc1-c1cc(C(C)(C)C)ncc1C(=O)Nc1ccc(F)c(C(N)=O)c1", "note": "[Compound 199, 6-tert-butyl-N-(3-carbamoyl-4-fluoro-phenyl)-4-(4-fluoro-2-methoxy-phenyl)pyridine-3-carboxamide]", "IC50": 170},
      {"smiles": "COc1cc(F)ccc1-c1cnc(C(F)(F)F)cc1C(=O)Nc1ccc(F)c(C(N)=O)c1", "note": "[Compound 200, N-(3-carbamoyl-4-fluoro-phenyl)-5-(4-fluoro-2-methoxy-phenyl)-2-(trifluoromethyl)pyridine-4-carboxamide]", "IC50": "> 3100"},
      {"smiles": "COc1cc(OC(F)(F)F)ccc1Oc1cc(Cl)c(C)c(F)c1C(=O)Nc1ccnc(C(N)=O)c1", "note": "[Compound 201, 4-[[4-Chloro-2-fluoro-6-[2-methoxy-4-(trifluoromethoxy)phenoxy]-3-methyl-benzoyl]amino]pyridine-2-carboxamide]", "IC50": 1},
      {"smiles": "COc1cc(OC(F)(F)F)ccc1Oc1ccc(C(F)(F)F)c(OC)c1C(=O)Nc1ccc(C(N)=O)nc1", "note": "[Compound 202, 5-[[2-Methoxy-6-[2-methoxy-4-(trifluoromethoxy)phenoxy]-3-(trifluoromethyl)benzoyl]amino]pyridine-2-carboxamide]", "IC50": 40},
      {"smiles": "COc1cc(OC(F)(F)F)ccc1Oc1cnc(C(F)(F)F)c(OC)c1C(=O)Nc1ccc(C(N)=O)nc1", "note": "[Compound 203, N-(6-Carbamoyl-3-pyridyl)-3-methoxy-5-[2-methoxy-4-(trifluoromethoxy)phenoxy]-2-(trifluoromethyl)pyridine-4-carboxamide]", "IC50": 46},
      {"smiles": "COc1cc(OC(F)(F)F)ccc1Oc1cc(Cl)cc(OC)c1C(=O)Nc1ccc(C(N)=O)nc1", "note": "[Compound 204, 5-[[4-Chloro-2-methoxy-6-[2-methoxy-4-(trifluoromethoxy)phenoxy]benzoyl]amino]pyridine-2-carboxamide]", "IC50": 600},
      {"smiles": "COc1cc(OC(F)(F)F)ccc1Oc1ccc(C(F)(F)F)c(OC)c1C(=O)Nc1ccc(C(N)=O)cn1", "note": "[Compound 205, 6-[[2-Methoxy-6-[2-methoxy-4-(trifluoromethoxy)phenoxy]-3-(trifluoromethyl)benzoyl]amino]pyridine-3-carboxamide]", "IC50": 150},
      {"smiles": "CCOc1c(C(F)(F)F)ncc(Oc2ccc(OC(F)(F)F)cc2OC)c1C(=O)Nc1ccnc(C(N)=O)c1", "note": "[Compound 206, N-(2-Carbamoyl-4-pyridyl)-3-ethoxy-5-[2-methoxy-4-(trifluoromethoxy)phenoxy]-2-(trifluoromethyl)pyridine-4-carboxamide]", "IC50": 45},
      {"smiles": "COc1cc(OC(F)(F)F)ccc1Oc1ccc(C(F)(F)F)c(F)c1C(=O)Nc1ccnc(C(N)=O)n1", "note": "[Compound 207, 4-[[2-Fluoro-6-[2-methoxy-4-(trifluoromethoxy)phenoxy]-3-(trifluoromethyl)benzoyl]amino]pyrimidine-2-carboxamide]", "IC50": 27},
      {"smiles": "NC(=O)c1cc(NC(=O)c2c(Oc3ccc(F)cc3OC(F)F)ccc(C(F)(F)F)c2F)ccn1", "note": "[Compound 208, 4-[[6-[2-(Difluoromethoxy)-4-fluoro-phenoxy]-2-fluoro-3-(trifluoromethyl)benzoyl]amino]pyridine-2-carboxamide]", "IC50": 13},
      {"smiles": "[2H]C([2H])([2H])Oc1cc(OC(F)(F)F)ccc1Oc1ccc(C(F)(F)F)c(F)c1C(=O)Nc1ccc(C(=O)NC)nc1", "note": "[Compound 209, 5-[[2-fluoro-6-[2-(trideuteriomethoxy)-4-(trifluoromethoxy)phenoxy]-3-(trifluoromethyl)benzoyl]amino]-N-methyl-pyridine-2-carboxamide]", "IC50": 50},
      {"smiles": "CCOc1c(C(F)(F)F)ncc(Oc2ccc(OC(F)(F)F)cc2OC)c1C(=O)Nc1cc(C(N)=O)ncc1C", "note": "[Compound 210, N-(2-Carbamoyl-5-methyl-4-pyridyl)-3-ethoxy-5-[2-methoxy-4-(trifluoromethoxy)phenoxy]-2-(trifluoromethyl)pyridine-4-carboxamide]", "IC50": 140},
      {"smiles": "COc1cc(OC(F)(F)F)ccc1Oc1cc(Cl)c(C)c(F)c1C(=O)Nc1cc(C(N)=O)ncc1C", "note": "[Compound 211, 4-[[4-Chloro-2-fluoro-6-[2-methoxy-4-(trifluoromethoxy)phenoxy]-3-methyl-benzoyl]amino]-5-methyl-pyridine-2-carboxamide]", "IC50": 6},
      {"smiles": "[2H]C([2H])([2H])Oc1cc(OC(F)(F)F)ccc1Oc1ccc(C(F)(F)F)c(F)c1C(=O)Nc1ccc(C(N)=O)cn1", "note": "[Compound 212, 6-[[2-Fluoro-6-[2-(trideuteriomethoxy)-4-(trifluoromethoxy)phenoxy]-3-(trifluoromethyl)benzoyl]amino]pyridine-3-carboxamide]", "IC50": 54},
      {"smiles": "[2H]c1cc(F)c(C(N)=O)cc1NC(=O)c1c(Oc2c([2H])cc(OC(F)(F)F)c([2H])c2[2H])ccc(C(F)(F)F)c1F", "note": "[Compound 213, N-(5-Carbamoyl-2-deuterio-4-fluoro-phenyl)-2-fluoro-6-[2,3,6-trideuterio-4-(trifluoromethoxy)phenoxy]-3-(trifluoromethyl)benzamide]", "IC50": 9},
      {"smiles": "NC(=O)c1cc(NC(=O)c2c(Oc3ccc(OC(F)(F)F)cc3O)ccc(C(F)(F)F)c2F)ccn1", "note": "[Compound 214, 4-[[2-Fluoro-6-[2-hydroxy-4-(trifluoromethoxy)phenoxy]-3-(trifluoromethyl)benzoyl]amino]pyridine-2-carboxamide]", "IC50": 660},
      {"smiles": "NC(=O)c1cc(NC(=O)c2c(Oc3ccc(OC(F)(F)F)cc3)cc(OCc3ccccc3)c(C(F)(F)F)c2F)ccc1F", "note": "[Compound 215, 4-Benzyloxy-N-(3-carbamoyl-4-fluoro-phenyl)-2-fluoro-6-[4-(trifluoromethoxy)phenoxy]-3-(trifluoromethyl)benzamide]", "IC50": 18},
      {"smiles": "COc1cc(Oc2ccc(OC(F)(F)F)cc2)c(C(=O)Nc2ccc(F)c(C(N)=O)c2)c(F)c1C(F)(F)F", "note": "[Compound 216, N-(3-Carbamoyl-4-fluoro-phenyl)-2-fluoro-4-methoxy-6-[4-(trifluoromethoxy)phenoxy]-3-(trifluoromethyl)benzamide]", "IC50": 8},
      {"smiles": "NC(=O)c1cc(NC(=O)c2c(F)c(C(F)(F)F)cc(OCc3ccccc3)c2Oc2ccc(OC(F)(F)F)cc2)ccc1F", "note": "[Compound 217, 5-Benzyloxy-N-(3-carbamoyl-4-fluoro-phenyl)-2-fluoro-6-[4-(trifluoromethoxy)phenoxy]-3-(trifluoromethyl)benzamide]", "IC50": 1100},
      {"smiles": "[2H]C([2H])([2H])Oc1c(Oc2ccc(C(F)(F)F)c(F)c2C(=O)Nc2ccnc(C(N)=O)c2)ccc(OC(F)(F)F)c1F", "note": "[Compound 218, 4-[[2-Fluoro-6-[3-fluoro-2-(trideuteriomethoxy)-4-(trifluoromethoxy)phenoxy]-3-(trifluoromethyl)benzoyl]amino]pyridine-2-carboxamide]", "IC50": 2},
      {"smiles": "COc1c(Oc2ccc(C(F)(F)F)c(F)c2C(=O)Nc2ccc(F)c(C(N)=O)c2)ccc(OC(F)(F)F)c1F", "note": "[Compound 219, N-(3-Carbamoyl-4-fluoro-phenyl)-2-fluoro-6-[3-fluoro-2-methoxy-4-(trifluoromethoxy)phenoxy]-3-(trifluoromethyl)benzamide]", "IC50": 0.9},
      {"smiles": "[2H]C([2H])([2H])Oc1c(Oc2ccc(Cl)c(F)c2C(=O)Nc2ccnc(C(N)=O)c2)ccc(OC(F)(F)F)c1F", "note": "[Compound 220, 4-[[3-Chloro-2-fluoro-6-[3-fluoro-2-(trideuteriomethoxy)-4-(trifluoromethoxy)phenoxy]benzoyl]amino]pyridine-2-carboxamide]", "IC50": 5},
      {"smiles": "[2H]C([2H])([2H])Oc1c(Oc2ccc(C(F)(F)F)c(F)c2C(=O)Nc2ccc(C(N)=O)nc2)ccc(OC(F)(F)F)c1F", "note": "[Compound 221, 5-[[2-Fluoro-6-[3-fluoro-2-(trideuteriomethoxy)-4-(trifluoromethoxy)phenoxy]-3-(trifluoromethyl)benzoyl]amino]pyridine-2-carboxamide]", "IC50": 14},
      {"smiles": "[2H]C([2H])([2H])Oc1c(Oc2cc(Cl)c(C([2H])([2H])[2H])c(F)c2C(=O)Nc2ccnc(C(N)=O)c2)ccc(OC(F)(F)F)c1F", "note": "[Compound 222, 4-[[4-Chloro-2-fluoro-6-[3-fluoro-2-(trideuteriomethoxy)-4-(trifluoromethoxy)phenoxy]-3-(trideuteriomethyl)benzoyl]amino]pyridine-2-carboxamide]", "IC50": 3}
    ]}
  ]
}
